Data set [1] deals with HBV replication in HepAD38 cells. As to the kind of experiment: Anti-HBV replication assay in HepAD38 cells (QPCR of extracellular HBV DNA). As to conditions: Hepatitis B virus, 168 h, 7 days incubation, extracellular HBV DNA by QPCR, read-out: Anti-HBV EC50. In kind it is cell-based, HBV (genotype D, serotype ayw). The method, boiled down: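 Tet-off HepAD38, 7-day compound exposure ([…], 1 log10 steps, DMSO vehicle), 37 °C. Extracellular HBV DNA by QPCR, copies/mL via standard curve, % inhibition vs vehicle, EC50 by 4-parameter regression. Entecavir as positive control.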

Data set [2] is described as follows: In vitro cytotoxicity assay (MTT cell viability) in HepG2 cells. In kind it is cell-based, human. As to conditions: human. The method, boiled down: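 Read-out: MTT formazan absorbance at 492 nm, expressed as % of vehicle signal; CC50 by 4-parameter non-linear regression. Parental HepG2, 20,000 cells/well, treated 7 days with compound from 30 μM down to 1.0 nM.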

The term EC50 denotes the concentration needed to bring the measured effect to its halfway point. The term CC50 denotes the concentration giving 50% cytotoxicity. The low end stands for greater toxicity to the cells, the high end for lower toxicity to the cells. In the case of `Cc1cc(NC(=O)c2c(C)c(C(=O)C(=O)NC3(C)CCN(S(C)(=O)=O)CC3)n(C)c2C)ccc1F` [Example 613, N-(4-fluoro-3-methylphenyl)-1,2,4-trimethyl-5-(2-((4-methyl-1-(methylsulfonyl)piperidin-4-yl)amino)-2-oxoacetyl)-1H-pyrrole-3-carboxamide], the EC50 in data set [1] was less than 50 nM. This molecule also gave a CC50 at 7 days in data set [2] greater than 30000 nM.

In the case of `Cc1cc(NC(=O)c2c(Cl)c(C(=O)C(=O)NCC(C)(C)CO)n3c2CCC3)ccc1F` [Example 549, 6-chloro-N-(4-fluoro-3-methylphenyl)-5-(2-((3-hydroxy-2,2-dimethylpropyl)amino)-2-oxoacetyl)-2,3-dihydro-1H-pyrrolizine-7-carboxamide], in data set [1], the EC50 fell in the range of 500 to 1000 nM. The molecule also yielded a CC50 at 7 days in data set [2] greater than 30000 nM.

As to `Cc1cc(NC(=O)c2c(C)c(C(=O)C(=O)NC3(C)CCN(c4nccs4)CC3)n(C)c2C)ccc1F` [Example 699, N-(4-fluoro-3-methylphenyl)-1,2,4-trimethyl-5-(2-((4-mmethyl-1-(thiazol-2-yl)piperidin-4-yl)amino)-2-oxoacetyl)-1H-pyrrole-3-carboxamide], the half-maximal effective concentration (EC50) in data set [1] was less than 50 nM. The CC50 at 7 days in data set [2] lay in the range of 5000 to 30000 nM.

For the molecule `Cc1cc(NC(=O)c2c(Cl)c(C(=O)C(=O)NCC(C)(C)CO)n3c2CCC3)cnc1F` [Example 577, 6-chloro-N-(6-fluoro-5-methylpyridin-3-yl)-5-(2-((3-hydroxy-2,2-dimethylpropyl)amino)-2-oxoacetyl)-2,3-dihydro-1H-pyrrolizine-7-carboxamide], the EC50 in data set [1] is greater than 1000 nM. Besides, the half-maximal cytotoxic concentration (CC50) at 7 days in data set [2] is greater than 30000 nM.

`Cc1cc(NC(=O)c2c(C)c(C(=O)C(=O)NC3(C)CCN(C(=O)c4cnn(C)c4)CC3)n(C)c2C)ccc1F` [Example 693, N-(4-fluoro-3-methylphenyl)-1,2,4-trimethyl-5-(2-((4-methyl-1-(1-methyl-1H-pyrazole-4-carbonyl)piperidin-4-yl)amno)-2-oxoacetyl)-1H-pyrrole-3-carboxamide]: the EC50 in data set [1] is less than 50 nM. For the same molecule, the CC50 at 7 days in data set [2] was greater than 30000 nM.

On to `Cc1noc([C@@H](C)NC(=O)C(=O)c2c(C)c(C(=O)Nc3cnc(F)c(C)c3)c3n2CCCC3)n1` [Example 472, (R)-N-(6-fluoro-5-methylpyridin-3-yl)-2-methyl-3-(2-((1-(3-methyl-1,2,4-oxadiazol-5-yl)ethyl)amino)-2-oxoacetyl)-5,6,7,8-tetrahydroindolizine-1-carboxamide], for which the EC50 in data set [1] is greater than 1000 nM. In data set [2], this molecule registered a CC50 at 7 days greater than 30000 nM.

For `Cc1cc(NC(=O)c2c(C)c(C(=O)C(=O)N[C@H]3CC[C@@H](C#N)CC3)n(C)c2C)ccc1F` [Example 283], the EC50 in data set [1] is less than 50 nM. The CC50 at 7 days in data set [2] lay in the range of 5000 to 30000 nM.

As to `Cc1cc(NC(=O)c2c(C)c(C(=O)C(=O)NC3C4CC5CC(C4)CC3C5)n(C)c2C)ccc1F` (centres unmarked) [Example 17, 5-(2-(((1r,3r)-adamantan-2-yl)amino)-2-oxoacetyl)-N-(4-fluoro-3-methylphenyl)-1,2,4-trimethyl-1H-pyrrole-3-carboxamide], the EC50 in data set [1] was less than 50 nM. The CC50 at 7 days in data set [2] was in the range of 500 to 4990 nM.

For `Cc1cc(NC(=O)c2c(C)c(C(=O)C(=O)NCCc3c(C)[nH][nH]c3=O)n(C)c2C)ccc1F` [Example 650, N-(4-fluoro-3-methylphenyl)-1,2,4-trimethyl-5-(2-((2-(5-methyl-3-oxo-2,3-dihdyro-1H-pyrazol-4-yl)ethyl)amino)-2-oxoacetyl)-1H-pyrrole-3-carboxamide], in data set [1], the EC50 lay within 50 to 499 nM. The CC50 at 7 days in data set [2] was greater than 30000 nM.

Take `Cc1cc(NC(=O)c2cc(C(=O)C(=O)NC3(C)COC3)n3c2CCCC3)ccc1F` [Example 405, N-(4-fluoro-3-metthylphenyl)-3-(2-((3-methyloxetan-3-yl)amino)-2-oxoacetyl)-5,6,7,8-tetrahydroindolizine-1-carboxamide]: the EC50 in data set [1] fell in the range of 50 to 499 nM. In addition, the CC50 at 7 days in data set [2] was greater than 30000 nM.

With `Cc1c(C(=O)Nc2ccc(F)c(F)c2)c(C)n(C)c1C(=O)C(=O)Nc1cccnc1` [Example 296, N-(3,4-difluorophenyl)-1,2,4-trimethyl-5-(2-oxo-2-(pyridin-3-ylamino)acetyl)-1H-pyrrole-3-carboxamide], the EC50 in data set [1] was less than 50 nM. In addition, the CC50 at 7 days in data set [2] was greater than 30000 nM.

`Cc1cc(NC(=O)c2c(C)c(C(=O)C(=O)NC3(C(=O)N[C@H](C)C(F)(F)F)CCOCC3)n(C)c2C)ccc1F` [Example 605, (R)-N-(4-fluoro-3-methylphenyl)-1,2,4-trimethyl-5-(2-oxo-2-((4-((1,1,1-trifluoropropan-2-yl)carbamoyl)tetrahydro-2H-pyran-4-yl)amino)acetyl)-1H-pyrrole-3-carboxamide]: in data set [1], the EC50 is less than 50 nM. Also, in data set [2], the CC50 at 7 days is greater than 30000 nM.

As for `Cc1cc(NC(=O)c2c(C)c(C(=O)C(=O)N[C@@H](C(=O)O)C3CCCCC3)n(C)c2C)ccc1F` [Example 69, (R)-2-cyclohexyl-2-(2-(4-((4-fluoro-3-methylphenyl)carbamoyl)-1,3,5-trimethyl-1H-pyrrol-2-yl)-2-oxoacetamido)acetic acid], in data set [1], the EC50 is 500 to 1000 nM. In data set [2], this molecule showed a CC50 at 7 days greater than 30000 nM.

Regarding `Cc1c(C(=O)Nc2ccc(F)c(Cl)c2)c(Cl)c(C(=O)C(=O)NC(C)(C)C)n1C` [Example 370, 5-(2-(tert-butylamino)-2-oxoacetyl)-4-chloro-N-(3-chloro-4-fluorophenyl)-1,2-dimethyl-1H-pyrrole-3-carboxamide], in data set [1], the EC50 is less than 50 nM. The CC50 at 7 days in data set [2] was greater than 30000 nM.

With `CC[C@@H](CO)NC(=O)C(=O)c1c(C)c(C(=O)Nc2ccc(F)c(C)c2)c(C)n1CCF` [Example 180, (S)-N-(4-fluoro-3-methylphenyl)-1(2-fluoroethyl)-5-(2-((1-hydroxybutan-2-yl)amino)-2-oxoacetyl)-2,4-dimethyl-1H-pyrrole-3-carboxamide], in data set [1], the concentration giving a half-maximal response (EC50) was less than 50 nM. The molecule also registered a CC50 at 7 days in data set [2] of 5000 to 30000 nM.

For the molecule `Cc1cc(NC(=O)c2c(C)c(C(=O)C(=O)NCCN3C(=O)CSC3=O)n(C)c2C)ccc1F` [Example 649, 5-(2-((2-(2,4-dioxothiazolidin-3-yl)ethyl)amino)-2-oxoacetyl)-N-(4-fluoro-3-methylphenyl)-1,2,4-trimethyl-1H-pyrrole-3-carboxamide], the EC50 in data set [1] is less than 50 nM. In data set [2], this molecule had a CC50 at 7 days greater than 30000 nM.

Regarding `Cc1cc(NC(=O)c2c(Cl)c(C(=O)C(=O)NC3(CO)CC(F)(F)C3)n3c2CCCC3)ccc1F` [Example 496, 2-chloro-3-(2-((3,3-difluoro-1-(hydroxymethyl)cyclobutyl)amino)-2-oxoacetyl)-N-(4-fluoro-3-methylphenyl)-5,6,7,8-tetrahydroindolizine-1-carboxamide], the EC50 in data set [1] is less than 50 nM. This molecule showed a CC50 at 7 days in data set [2] of 5000 to 30000 nM.

Consider `Cc1cc(NC(=O)c2c(C)c(C(=O)C(=O)NC3(C(=O)NC(C)C)CCOCC3)n(C)c2C)ccc1F` [Example 303, N-(4-fluoro-3-methylphenyl)-5-(2-((4-(isopropylcarbamoyl)tetrahydro-2H-pyran-4-yl)amino)-2-oxoacetyl)-1,2,4-trimethyl-1H-pyrrole-3-carboxamide], for which, in data set [1], the EC50 is less than 50 nM. For the same molecule, the CC50 at 7 days in data set [2] is greater than 30000 nM.

On to `C#CCNC(=O)C(=O)c1c(C)c(C(=O)Nc2ccc(F)c(C)c2)c(C)n1C` [Example 275, N-(4-fluoro-3-methylphenyl)-1,2,4-trimethyl-5-(2-oxo-2-(prop-2-yn-1-ylamino)acetyl)-1H-pyrrole-3-carboxamide], for which, in data set [1], the EC50 is less than 50 nM. The same molecule yielded a CC50 at 7 days in data set [2] greater than 30000 nM.

Values taken from patent publication US20190375708A1 (VenatoRx Pharmaceuticals, Inc., priority 2018, published 2019).
